Experimental findings from ChEMBL document CHEMBL3991601, “The target landscape of clinical kinase drugs” (Science, 2017) are described below.

As a reminder, the Kd is the concentration at which binding is half-saturated.

For assay [1], the target named is Bone morphogenetic protein receptor type-1A (Homo sapiens, UniProt P36894).
Assay [2] deals with Citron Rho-interacting kinase (Homo sapiens, UniProt O14578).
In another assay the target is T1, Ephrin type-B receptor 6 (Homo sapiens, UniProt O15197).
T1 sequence (O15197 whole entry): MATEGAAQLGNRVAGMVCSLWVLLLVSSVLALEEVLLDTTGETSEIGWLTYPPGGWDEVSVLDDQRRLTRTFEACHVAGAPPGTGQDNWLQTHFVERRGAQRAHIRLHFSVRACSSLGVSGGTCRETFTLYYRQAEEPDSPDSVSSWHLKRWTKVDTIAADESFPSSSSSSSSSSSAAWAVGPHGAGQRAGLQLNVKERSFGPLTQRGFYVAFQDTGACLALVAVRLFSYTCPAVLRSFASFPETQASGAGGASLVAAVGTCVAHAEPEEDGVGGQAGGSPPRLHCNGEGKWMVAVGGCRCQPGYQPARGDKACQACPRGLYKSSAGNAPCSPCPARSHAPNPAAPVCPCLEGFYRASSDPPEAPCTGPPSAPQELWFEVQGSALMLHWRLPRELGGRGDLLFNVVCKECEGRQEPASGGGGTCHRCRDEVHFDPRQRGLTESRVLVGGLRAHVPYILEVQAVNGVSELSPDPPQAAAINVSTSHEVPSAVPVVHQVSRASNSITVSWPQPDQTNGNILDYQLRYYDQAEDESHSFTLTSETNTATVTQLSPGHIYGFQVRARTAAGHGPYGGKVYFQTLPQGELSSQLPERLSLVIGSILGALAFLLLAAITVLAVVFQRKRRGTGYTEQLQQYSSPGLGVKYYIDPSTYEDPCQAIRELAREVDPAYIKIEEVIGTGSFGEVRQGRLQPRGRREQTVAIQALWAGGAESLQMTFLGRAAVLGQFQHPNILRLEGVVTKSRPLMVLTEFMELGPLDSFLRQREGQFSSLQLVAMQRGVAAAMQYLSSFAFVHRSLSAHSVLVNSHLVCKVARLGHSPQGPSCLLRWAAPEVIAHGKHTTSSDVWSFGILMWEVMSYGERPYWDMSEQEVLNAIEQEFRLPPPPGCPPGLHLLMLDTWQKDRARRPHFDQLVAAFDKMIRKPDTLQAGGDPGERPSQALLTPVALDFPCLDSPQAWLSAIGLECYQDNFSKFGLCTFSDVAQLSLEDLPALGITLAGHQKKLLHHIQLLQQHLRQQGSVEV

In assay [3] the target is T2, Interleukin-1 receptor-associated kinase 4 (Homo sapiens, UniProt Q9NWZ3).
T2 sequence (Q9NWZ3 whole entry): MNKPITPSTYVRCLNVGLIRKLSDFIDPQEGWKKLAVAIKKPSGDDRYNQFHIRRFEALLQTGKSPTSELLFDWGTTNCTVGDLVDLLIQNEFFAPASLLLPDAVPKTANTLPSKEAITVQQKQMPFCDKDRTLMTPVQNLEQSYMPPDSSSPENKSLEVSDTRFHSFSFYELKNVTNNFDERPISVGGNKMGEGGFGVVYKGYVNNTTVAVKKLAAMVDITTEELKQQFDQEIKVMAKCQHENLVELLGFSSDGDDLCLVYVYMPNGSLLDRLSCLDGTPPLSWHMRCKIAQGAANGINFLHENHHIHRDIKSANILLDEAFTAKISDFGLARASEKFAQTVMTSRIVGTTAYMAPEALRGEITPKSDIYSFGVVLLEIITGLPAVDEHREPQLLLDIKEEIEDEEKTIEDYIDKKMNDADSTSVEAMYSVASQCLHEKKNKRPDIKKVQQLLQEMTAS

Calls of active or inactive are those of the source. For most assays here, no stated cut-off is given here; in the data, actives have a measured Kd and inactives only a lower limit.

Citron Rho-interacting kinase, sequence (O14578 whole entry): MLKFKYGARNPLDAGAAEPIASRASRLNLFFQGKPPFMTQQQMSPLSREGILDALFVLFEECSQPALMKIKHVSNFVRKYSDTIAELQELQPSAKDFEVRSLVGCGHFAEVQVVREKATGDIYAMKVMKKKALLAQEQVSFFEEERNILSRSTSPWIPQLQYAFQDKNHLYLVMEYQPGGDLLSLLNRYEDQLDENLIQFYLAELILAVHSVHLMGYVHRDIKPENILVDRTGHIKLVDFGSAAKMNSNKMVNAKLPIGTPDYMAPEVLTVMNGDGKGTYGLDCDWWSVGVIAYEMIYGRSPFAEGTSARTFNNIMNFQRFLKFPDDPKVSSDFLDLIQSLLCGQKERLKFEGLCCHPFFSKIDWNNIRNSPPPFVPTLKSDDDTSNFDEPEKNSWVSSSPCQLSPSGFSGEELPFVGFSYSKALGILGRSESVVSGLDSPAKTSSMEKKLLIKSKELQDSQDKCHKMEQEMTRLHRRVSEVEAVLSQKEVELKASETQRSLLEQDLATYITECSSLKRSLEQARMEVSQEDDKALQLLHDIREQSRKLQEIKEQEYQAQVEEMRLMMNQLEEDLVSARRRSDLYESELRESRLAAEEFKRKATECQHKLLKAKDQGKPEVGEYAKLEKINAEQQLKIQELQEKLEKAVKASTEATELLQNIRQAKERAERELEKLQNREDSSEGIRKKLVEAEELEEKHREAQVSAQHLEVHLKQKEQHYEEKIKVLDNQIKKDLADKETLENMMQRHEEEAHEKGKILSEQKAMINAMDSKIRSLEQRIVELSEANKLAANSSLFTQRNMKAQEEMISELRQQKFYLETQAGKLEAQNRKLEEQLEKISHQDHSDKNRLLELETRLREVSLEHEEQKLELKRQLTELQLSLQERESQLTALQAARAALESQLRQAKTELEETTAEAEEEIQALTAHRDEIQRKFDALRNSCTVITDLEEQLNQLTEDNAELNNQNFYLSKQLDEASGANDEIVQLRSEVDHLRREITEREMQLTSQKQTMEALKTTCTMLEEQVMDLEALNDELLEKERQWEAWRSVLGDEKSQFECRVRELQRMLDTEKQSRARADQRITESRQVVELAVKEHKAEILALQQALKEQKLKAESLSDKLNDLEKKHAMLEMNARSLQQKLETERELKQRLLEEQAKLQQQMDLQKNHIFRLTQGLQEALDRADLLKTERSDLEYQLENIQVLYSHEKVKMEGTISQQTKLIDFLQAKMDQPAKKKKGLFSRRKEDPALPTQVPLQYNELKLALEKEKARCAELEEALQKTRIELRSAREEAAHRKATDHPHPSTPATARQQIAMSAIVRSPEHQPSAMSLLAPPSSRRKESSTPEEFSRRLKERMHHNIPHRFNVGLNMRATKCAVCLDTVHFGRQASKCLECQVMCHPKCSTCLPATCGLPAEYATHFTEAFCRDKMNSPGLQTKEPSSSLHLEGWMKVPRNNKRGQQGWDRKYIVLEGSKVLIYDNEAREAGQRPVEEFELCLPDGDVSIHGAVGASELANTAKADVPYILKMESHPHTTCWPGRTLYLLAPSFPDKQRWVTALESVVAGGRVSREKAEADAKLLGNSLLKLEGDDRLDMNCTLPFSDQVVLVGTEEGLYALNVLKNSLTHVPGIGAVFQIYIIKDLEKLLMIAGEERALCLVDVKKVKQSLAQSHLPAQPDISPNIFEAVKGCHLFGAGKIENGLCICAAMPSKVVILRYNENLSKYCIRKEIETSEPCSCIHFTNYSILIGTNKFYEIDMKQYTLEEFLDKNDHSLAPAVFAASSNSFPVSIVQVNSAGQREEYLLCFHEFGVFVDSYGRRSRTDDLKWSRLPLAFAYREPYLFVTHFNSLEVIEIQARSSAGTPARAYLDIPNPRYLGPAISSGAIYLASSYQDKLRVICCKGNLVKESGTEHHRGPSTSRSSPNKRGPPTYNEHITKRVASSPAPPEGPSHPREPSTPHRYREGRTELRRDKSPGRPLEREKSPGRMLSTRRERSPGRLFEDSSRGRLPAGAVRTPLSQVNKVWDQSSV
Bone morphogenetic protein receptor type-1A, sequence (P36894 whole entry): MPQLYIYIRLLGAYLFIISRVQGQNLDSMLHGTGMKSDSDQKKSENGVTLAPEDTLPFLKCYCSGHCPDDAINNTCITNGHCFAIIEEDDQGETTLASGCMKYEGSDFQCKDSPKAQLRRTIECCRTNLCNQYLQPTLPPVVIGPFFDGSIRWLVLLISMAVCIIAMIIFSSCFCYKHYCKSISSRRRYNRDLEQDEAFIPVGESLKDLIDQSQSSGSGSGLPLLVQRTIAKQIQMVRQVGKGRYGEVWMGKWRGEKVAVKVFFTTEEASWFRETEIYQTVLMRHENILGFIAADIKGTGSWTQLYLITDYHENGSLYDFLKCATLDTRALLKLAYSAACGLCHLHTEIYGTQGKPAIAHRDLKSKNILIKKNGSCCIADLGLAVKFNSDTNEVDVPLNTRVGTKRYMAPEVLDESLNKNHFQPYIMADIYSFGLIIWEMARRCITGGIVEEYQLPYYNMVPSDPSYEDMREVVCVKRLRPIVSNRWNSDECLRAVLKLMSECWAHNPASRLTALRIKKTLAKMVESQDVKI

`C[C@@H](Oc1cc(C(=O)Nc2ccc(C(=O)N3CCN(C)CC3)cc2)nnc1N)c1c(Cl)ccc(F)c1Cl`: the Kd (in assay [1]; in assay [2]; on Ephrin type-B receptor 6; in assay [3]) was > 30 µM (inactive) in each case.

Turning to `CCNC(=O)C#Cc1ccc2c(c1)NC(=O)/C2=C(\Nc1ccc(CN(C)C)cc1)c1ccccc1`, the Kd (in assay [1]; in assay [2]; at Ephrin type-B receptor 6; in assay [3]) was > 30 µM (inactive) throughout.

For the compound `COCc1c(-c2ccc(NC(=O)Nc3cc(C(F)(F)F)ccc3F)c(F)c2)c2c(N)ncnn2c1CN1CCOCC1`, the Kd (in assay [1]; in assay [2]; on Ephrin type-B receptor 6; in assay [3]) was > 30 µM (inactive) throughout.

Turning to `Nc1ncnc2c1c(-c1cccc(OCc3ccccc3)c1)cn2[C@H]1C[C@@H](CN2CCC2)C1` [AEW-541], the Kd (in assay [1]; in assay [2]; on Ephrin type-B receptor 6; in assay [3]) was > 30 µM (inactive) each time.

`COc1cc([C@@H]2c3cc4c(cc3[C@H](O)[C@H]3COC(=O)[C@@H]23)OCO4)cc(OC)c1OC` [AXL-1717]: the Kd (in assay [1]; in assay [2]; at Ephrin type-B receptor 6; in assay [3]) was > 30 µM (inactive) throughout.

For `NC(=O)Nc1cc(-c2cccc(F)c2)sc1C(=O)N[C@H]1CCCNC1` [AZD-7762], the Kd in assay [1] and in assay [2] was > 30 µM (inactive) in each case.

`Cc1cc(Nc2ncc(Cl)c(Nc3ccccc3S(=O)(=O)C(C)C)n2)c(OC(C)C)cc1C1CCNCC1` [CERITINIB]: the Kd (in assay [1]; in assay [2]; on Ephrin type-B receptor 6; in assay [3]) was > 30 µM (inactive) in each case.

For the compound `C#Cc1cccc(Nc2ncnc3cc(OC)c(OCCCCCCC(=O)NO)cc23)c1` [CUDC-101], the Kd (in assay [1]; in assay [2]; at Ephrin type-B receptor 6; in assay [3]) was > 30 µM (inactive) each time.

`Cc1cccc(-c2nn3c(c2-c2ccnc4ccc(C(N)=O)cc24)CCC3)n1` [GALUNISERTIB]: the Kd (in assay [1]; in assay [2]; on Ephrin type-B receptor 6; in assay [3]) was > 30 µM (inactive) in each case.

With `CCn1cc(-c2ccnc3[nH]c(-c4cccc(CN(C)C)c4)cc23)c(-c2ccc(NC(=O)N(C)C)cc2)n1` [GSK-1070916], the Kd in assay [1] was > 30 µM (inactive); in assay [2], 2.89 µM (active); on Ephrin type-B receptor 6, 3.77 µM (active); in assay [3], > 30 µM (inactive).

Take `CNC(=O)c1nn(C)c2c1C(C)(C)Cc1cnc(Nc3ccc(N4CCN(C)CC4)cc3)nc1-2` [MILCICLIB]: the Kd is > 30 µM (inactive) in assay [1], > 30 µM (inactive) in assay [2], > 30 µM (inactive) on Ephrin type-B receptor 6 and 26.1 µM (active) in assay [3].

As to `NC1(c2ccc(-c3nc4ccn5c(=O)[nH]nc5c4cc3-c3ccccc3)cc2)CCC1` [MK-2206], the Kd (in assay [1]; in assay [2]; on Ephrin type-B receptor 6; in assay [3]) was > 30 µM (inactive) each time.

For the compound `CN(C[C@@H]1COCCO1)S(=O)(=O)Nc1ccc2ccc3ncc(-c4cnn(C)c4)cc3c(=O)c2c1` [MK-2461], the Kd in assay [1] is > 30 µM (inactive); in assay [2], > 30 µM (inactive); at Ephrin type-B receptor 6, > 30 µM (inactive); in assay [3], 1.47 µM (active).

For the compound `FC(F)(F)c1ccc(/C=C/c2nc(COc3ccc(CCCCn4ccnn4)cc3)co2)cc1` [MUBRITINIB], the Kd (in assay [1]; in assay [2]; at Ephrin type-B receptor 6; in assay [3]) was > 30 µM (inactive) in each case.

For the compound `CCOc1cc2ncc(C#N)c(Nc3ccc(F)c(Cl)c3)c2cc1NC(=O)/C=C/CN(C)C` [PELITINIB], the Kd (in assay [1]; in assay [2]; on Ephrin type-B receptor 6; in assay [3]) was > 30 µM (inactive) throughout.

On to `CC(=O)NCC(=O)N1[C@@H]2CC[C@H]1c1ccc(Nc3ncc(C(F)(F)F)c(NC4CCC4)n3)cc12` [PF-03814735], for which the Kd (in assay [1]; in assay [2]; at Ephrin type-B receptor 6) was > 30 µM (inactive) each time.

`CO[C@H]1C[C@@H]2CC[C@@H](C)[C@@](O)(O2)C(=O)C(=O)N2CCCC[C@H]2C(=O)O[C@H]([C@H](C)C[C@@H]2CC[C@@H](OP(C)(C)=O)[C@H](OC)C2)CC(=O)[C@H](C)/C=C(\C)[C@@H](O)[C@@H](OC)C(=O)[C@H](C)C[C@H](C)/C=C/C=C/C=C/1C` [RIDAFOROLIMUS]: the Kd (in assay [1]; in assay [2]; at Ephrin type-B receptor 6; in assay [3]) was > 30 µM (inactive) in each case.

Take `CN1CCN(CCOc2cc(OC3CCOCC3)c3c(Nc4c(Cl)ccc5c4OCO5)ncnc3c2)CC1` [SARACATINIB]: the Kd in assay [1] was 0.06 µM (active); in assay [2] it was > 30 µM (inactive); on Ephrin type-B receptor 6 it was 3.6 µM (active); in assay [3] it was > 30 µM (inactive).

As to `COc1cc2c(Nc3ccc(Cl)c(Cl)c3F)ncnc2cc1OC[C@@H]1C[C@@H]2CN(C)C[C@@H]2C1` [TESEVATINIB], the Kd was > 30 µM (inactive) in assay [1], > 30 µM (inactive) in assay [2], 0.259 µM at Ephrin type-B receptor 6 and 1.17 µM (active) in assay [3].

Regarding `C[C@@H](NC(=O)c1ncnc(N)c1Cl)c1ncc(C(=O)Nc2cc(C(F)(F)F)c(Cl)cn2)s1` [TOVORAFENIB], the Kd in assay [1] is > 30 µM (inactive); in assay [2], > 30 µM (inactive); at Ephrin type-B receptor 6 it was 3.34 µM (active); in assay [3] it was > 30 µM (inactive).

As for `Cn1ncc(Cl)c1-c1cc(C(=O)N[C@H](CN)Cc2ccc(F)c(F)c2)oc1Cl` [UPROSERTIB], the Kd (in assay [1]; in assay [2]; at Ephrin type-B receptor 6; in assay [3]) was > 30 µM (inactive) in each case.
